Source: patent publication US20260262641A1 (priority 2023, published 2026)
Converted amounts (≈) assume the structure as drawn.

Key:
[1] = test system: redlegged earth mite (H. destructor; RLEM); assay: Field trial in canola, pre- or post-emergent control of RLEM (Example 5); format: in vivo, Halotydeus destructor; conditions: application timing B (early post-emergent, 1 to 2 leaf canola)
Method: A field trial was conducted in canola cv. Garrison, to evaluate fenpyroximate for control of redlegged earth mite (H. destructor; RLEM) as a pre- or post-emergent application. The trial was located at Beverley, Western Australia (−32.2248085, 117.0268493). The canola was sown on 13th June 2023. […] All treatments were applied using a hand boom fitted with flat fan nozzles in a spray volume of 100 L/ha.
The density of RLEM was assessed 33 days after the second application timing by counting the number of mites per plant.
(§1) All data was statistically analyzed using analysis of variance and Fisher's protected least significant different test (Fishers LSD). The level of significance for all tests was P<0.05.

[2] = test system: insecticide-susceptible population of redlegged earth mite (H. destructor; RLEM); assay: whole plant or invertebrate; conditions: Halotydeus destructor, 24 h; for LC50: read-out: LC50 (95% CI)
Method: (§2) The insecticide-susceptible H. destructor population tested in this bioassay was collected from burr medic (Medicago polymorpha) and barley grass (Hordeum leporinum) in Moulamein, NSW (−35.102, 144.026), a site with no known history of insecticide application. […] Mites were collected via suction using a Stihl SH55 blower vacuum, placed in plastic containers with paper towel and vegetation, and transported back to the laboratory, where they were stored at 4° C. until testing.
(§3) Serial dilutions were prepared for each insecticide (Table 9), with the addition of a non-ionic surfactant (Tween 20) at 0.01% to aid the spread of the insecticide and ensure even coating. […] Nine concentrations of bifenthrin were tested, ranging from 1×10^−5 to 10 times the field rate of 40 mL diluted in 100 L of water (100 mg a.i./L). Seven concentrations of omethoate were tested, ranging from 1×10^−5 to 10 times the field rate of 100 mL in 100 L of water (290 mg a.i./L).
(§4) Six vials were coated per concentration and were left to dry overnight. Control vials were treated in the same way, except water (with the addition of 0.01% Tween) was used. The next day, eight individual H. destructor were then placed into each vial along with 2-3 leaves of common vetch (Vicia sativa), which provided food and humidity. Vials were then sealed with a screw lid and placed in a controlled temperature cabinet at 18° C. After 24-hours exposure, mites were scored as alive (moving freely), incapacitated (inhibited movement), or dead (no movement over a 5 second period).
(§5) Dose-response curves were generated by plotting percentage mortality against log concentration. A series of logistic models were used to quantify the sensitivity of H. destructor to each chemical and to test whether any differences in sensitivity were present between the two populations. Logistic regression is well suited for the analysis of binary response data (e.g., dead/alive). Each model included chemical concentration and H. destructor population as fixed-effect predictors, which allowed testing for whether populations had average differences in mortality (i.e., model intercept) via F tests. It was then determined if populations had differences in mortality that were dependent on chemical concentration (i.e., differences in regression slopes) by comparing the inclusion of a population×concentration predictor (i.e., allowing slopes to vary between populations). […] The resulting LC50 values were used to quantify the level of insecticide resistance (resistance ratios) relative to the known insecticide-susceptible population. All analyses were conducted using R version 4.3.1 (R Development Core Team 2023).

[3] = test system: insecticide-resistant population of redlegged earth mite (H. destructor; RLEM); assay: whole plant or invertebrate; conditions: for difference between insecticide-susceptible and resistant populations in response (in words): P < 0.05 level; for LC50: read-out: LC50 (95% CI)
Method: as §2, §3, §4, §5

[4] = test system: couch mite (Aceria cynodoniensis); assay: Field trial in Santa Ana couch turfgrass, control of couch mite (Example 3); format: in vivo; conditions: for Biomass and vigor (0-10), 42 DAA2 / Biomass and vigor (0-10), Pre-spray: 0 to 10 rating scale; for Biomass and vigor (0-10), 42 DAA2 / NDVI, 42 DAA2 / % Incidence mite damage, 42 DAA2: product rate mL/ha: Prophesy 500, Thumper 2000 (+ BS 1000 0.25% v/v); for Biomass and vigor (0-10), 42 DAA2 / NDVI, 42 DAA2: Fenpyroximate 50 SC 4000; for NDVI, 42 DAA2 / NDVI, Pre-spray: Greenseeker; for % Incidence mite damage, 42 DAA2: 42 days after second application, Fenpyroximate 50 SC 4000 (200 g ai/ha); for Biomass and vigor (0-10), Pre-spray / NDVI, Pre-spray / % Incidence mite damage, Pre-spray: Pre-spray (baseline); for % Incidence mite damage, Pre-spray: witches' broom
Method: A field trial was conducted in Santa Ana couch turfgrass, to evaluate fenpyroximate for control of couch mite (Aceria cynodoniensis). The trial was located at Terrey Hills Golf and Country Club, New South Wales (−33.668, 151.217). […] All treatments were applied using a hand boom fitted with XR11004 nozzles and in a spray volume of 430 L/ha.
The incidence of couch mite damage, to the terminal growth point (known as witches' broom) was assessed 42 days after the second application. Turf biomass and vigor were assessed at the same timing on a 0 to 10 rating scale, along with NDVI using a Greenseeker.
as §1

[5] = test system: redlegged earth mite (H. destructor; RLEM); assay: whole plant or invertebrate; conditions: for LC50: read-out: LC50 (95% CI)
Method: On the 14th of May 2022, H. destructor were collected from capeweed (Arctotheca calendula) in South Morang, Victoria (−37.625, 145.110), a site with no known history of insecticide application. Mites were collected via suction using a Stihl SH55 blower vacuum, placed in plastic containers with paper towel and vegetation, and transported back to the laboratory, where they were stored at 4° C. until testing.
Serial dilutions were prepared for each insecticide (Table 1), with the addition of a non-ionic surfactant (Tween 20) at 0.01% to aid the spread of the insecticide and ensure even coating. […] Nine concentrations of pyridaben ranging from the proposed field rate of 1480 mL diluted in 100 L of water (1998 mg a.i./L) to 1×10^−5 were serially diluted and tested along with a water control. Eight concentrations of omethoate, ranging from 10 times the field rate of 100 mL diluted in 100 L of water (290 mg a.i./L) to 1×10^−5, were tested along with a water control. Seven concentrations of bifenthrin, ranging from 10 times the field rate of 40 mL diluted in 100 L of water (100 mg a.i./L) to 1×10^−5, were tested along with a water control. For each insecticide concentration tested, approximately 10 mL of solution was poured into a 15 mL plastic vial and swirled to ensure a complete coating, with excess liquid removed. Six vials were coated per concentration and were left to dry overnight. Control vials were treated in the same way, except water (with the addition of 0.01% Tween) was used.
as §4, with “Approximately” for “Six vials were coated per concentration and were left to dry overnight. Control vials were treated in the same way, except water (with the addition of 0.01% Tween) was used. The next day,”
Dose-response curves were generated by plotting percentage mortality against log concentration. […] Logistic regression is well suited for the analysis of binary response data (e.g., dead/alive). All analyses were conducted using R version 3.3.1 (R Development Core Team 2022).

[6] = read-out: % RLEM mortality, Susceptible
[7] = Halotydeus destructor, 24 h, read-out: % RLEM mortality, Resistant
[8] = Halotydeus destructor, 24 h, read-out: % RLEM mortality

Molecule: CC(C)c1cc(Oc2ccccc2)cc(C(C)C)c1NC(=S)NC(C)(C)C [Diafenthiuron]
- % Control (33 DAA2) ([1]; product rate 400 mL/ha): 54%
- mortality at 0.03 µg/mL [2, 6]: 13.9%
- mortality at 0.3 µg/mL [2, 6]: 15.6%
- mortality at 3 µg/mL [2, 6]: 13%
- mortality at 30 µg/mL [2, 6]: 21.5%
- mortality at 300 µg/mL [2, 6]: 64.1%
- mortality at 3000 µg/mL [2, 6]: 100%
- mortality at 30000 µg/mL [2, 6]: 100%
- mortality at 90000 µg/mL [2, 6]: 100%
- mortality at 0.03 µg/mL [3, 7]: 3.9%
- mortality at 0.3 µg/mL [3, 7]: 10.6%
- mortality at 3 µg/mL [3, 7]: 13.2%
- mortality at 30 µg/mL [3, 7]: 15.7%
- mortality at 300 µg/mL [3, 7]: 39.5%
- mortality at 3000 µg/mL [3, 7]: 75.5%
- mortality at 30000 µg/mL [3, 7]: 100%
- mortality at 90000 µg/mL [3, 7]: 100%
- difference between insecticide-susceptible and resistant populations in response (in words) [3]: significant population differences

Molecule: Clc1ccccc1-c1nnc(-c2ccccc2Cl)nn1 [Prophesy, Clofentezine]
- Biomass and vigor (0-10), 42 DAA2 [4]: 4.9
- NDVI, 42 DAA2 [4]: 0.64
- % Incidence mite damage, 42 DAA2 [4]: 52.0%
- Biomass and vigor (0-10), Pre-spray [4]: 4.0 a
- NDVI, Pre-spray [4]: 0.53 a
- % Incidence mite damage, Pre-spray [4]: 94.0 a %
- turf biomass and vigor and NDVI (in words) ([4]; versus untreated, P<0.05): also improved

Molecule: Cc1c(COC(=O)[C@@H]2[C@H](/C=C(\Cl)C(F)(F)F)C2(C)C)cccc1-c1ccccc1 (racemic) [Bifenthrin]
- mortality at 0.001 µg/mL [2, 6]: 7%
- mortality at 0.01 µg/mL [2, 6]: 4.7%
- mortality at 0.03 µg/mL [2, 6]: 17.4%
- mortality at 0.1 µg/mL [2, 6]: 74.3%
- mortality at 0.3 µg/mL [2, 6]: 98.1%
- mortality at 1 µg/mL [2, 6]: 100%
- mortality at 10 µg/mL [2, 6]: 100%
- mortality at 100 µg/mL [2, 6]: 100%
- mortality at 1000 µg/mL [2, 6]: 100%
- LC50 [2]: 0.053 µg/mL (≈ 0.125 µM)
- Resistance ratio [3]: 265.09
- mortality at 0.001 µg/mL [3, 7]: 4.4%
- mortality at 0.01 µg/mL [3, 7]: 9.3%
- mortality at 0.03 µg/mL [3, 7]: 5.8%
- mortality at 0.1 µg/mL [3, 7]: 22.3%
- mortality at 0.3 µg/mL [3, 7]: 44.6%
- mortality at 1 µg/mL [3, 7]: 48.9%
- mortality at 10 µg/mL [3, 7]: 70.9%
- mortality at 100 µg/mL [3, 7]: 59%
- mortality at 1000 µg/mL [3, 7]: 53.5%
- LC50 ([3]; Halotydeus destructor, 24 h): 14.1 µg/mL (≈ 33.2 µM)
- difference between insecticide-susceptible and resistant populations in response (in words) [3]: significant difference
- mortality at 0.001 µg/mL [5, 8]: 0%
- mortality at 0.01 µg/mL [5, 8]: 0%
- mortality at 0.1 µg/mL [5, 8]: 64.9%
- mortality at 0.3 µg/mL [5, 8]: 98.7%
- mortality at 1 µg/mL [5, 8]: 100%
- mortality at 10 µg/mL [5, 8]: 100%
- mortality at 100 µg/mL [5, 8]: 100%
- LC50 ([5]; Halotydeus destructor, 24 h): 0.085 µg/mL (≈ 0.201 µM)

Molecule: Abamectin [Thumper]
- Biomass and vigor (0-10), 42 DAA2 [4]: 4.4
- NDVI, 42 DAA2 [4]: 0.58
- % Incidence mite damage, 42 DAA2 [4]: 57.0%
- Biomass and vigor (0-10), Pre-spray [4]: 3.9 a
- NDVI, Pre-spray [4]: 0.52 a
- % Incidence mite damage, Pre-spray [4]: 95.3 a %

Molecule: CNC(=O)CSP(=O)(OC)OC [Omethoate]
- % Control (33 DAA2) ([1]; product rate 100 mL/ha): 74%
- mortality at 0.0029 µg/mL [2, 6]: 7.6%
- mortality at 0.029 µg/mL [2, 6]: 10.1%
- mortality at 0.29 µg/mL [2, 6]: 32.1%
- mortality at 2.9 µg/mL [2, 6]: 95.8%
- mortality at 29 µg/mL [2, 6]: 100%
- mortality at 290 µg/mL [2, 6]: 100%
- mortality at 2900 µg/mL [2, 6]: 100%
- LC50 [2]: 0.348 µg/mL (≈ 1.63 µM)
- mortality at 0.0029 µg/mL [3, 7]: 16.1%
- mortality at 0.029 µg/mL [3, 7]: 18.9%
- mortality at 0.29 µg/mL [3, 7]: 17.2%
- mortality at 2.9 µg/mL [3, 7]: 47.5%
- mortality at 29 µg/mL [3, 7]: 100%
- mortality at 290 µg/mL [3, 7]: 100%
- mortality at 2900 µg/mL [3, 7]: 100%
- LC50 ([3]; Halotydeus destructor, 24 h): 0.935 µg/mL (≈ 4.39 µM)
- difference between insecticide-susceptible and resistant populations in response (in words) [3]: no statistically significant difference
- mortality at 0.003 µg/mL [5, 8]: 0%
- mortality at 0.03 µg/mL [5, 8]: 2.8%
- mortality at 0.3 µg/mL [5, 8]: 11.7%
- mortality at 0.9 µg/mL [5, 8]: 55.3%
- mortality at 2.9 µg/mL [5, 8]: 98.1%
- mortality at 29 µg/mL [5, 8]: 100%
- mortality at 290 µg/mL [5, 8]: 100%
- mortality at 2900 µg/mL [5, 8]: 100%
- LC50 ([5]; Halotydeus destructor, 24 h): 0.681 µg/mL (≈ 3.19 µM)

Molecule: CC(C)(C)c1ccc(CSc2cnn(C(C)(C)C)c(=O)c2Cl)cc1 [Pyridaben]
- mortality even at the highest rates ([5]; 24 hours exposure, highest rates tested): less than 50%
- mortality at 0.02 µg/mL [5, 8]: 0%
- mortality at 0.2 µg/mL [5, 8]: 0%
- mortality at 2 µg/mL [5, 8]: 0%
- mortality at 20 µg/mL [5, 8]: 0%
- mortality at 60 µg/mL [5, 8]: 0%
- mortality at 200 µg/mL [5, 8]: 9%
- mortality at 599 µg/mL [5, 8]: 23.4%
- mortality at 999 µg/mL [5, 8]: 45.5%
- mortality at 1998 µg/mL [5, 8]: 27.5%
- efficacy against RLEM (in words) ([5]; laboratory bioassay, 24 hours exposure): not efficacious
- highest mortality observed ([5]; range of concentrations tested 0.01998-1998 mg a.i./L): 45%
